The values that follow come from US20240398942A1, “USE OF ANTI-CD40 ANTIBODY” (CHIA TAI TIANQING PHARMACEUTICAL GROUP CO., LTD., priority 2021, published 2024).

Where a name gives a salt, the structure may show the parent alone.

Series [1] relates to human B-cell lymphoma Ramos cells. In words: Efficacy of anti-CD40 antibody and anlotinib, Ramos subcutaneous xenograft mouse model. Type of series: in vivo. On the procedure:
Human B-cell lymphoma Ramos cells (purchased from the Cell Bank of the Chinese Academy of Sciences) were cultured in an RPMI1640 medium containing 10% of fetal bovine serum and penicillin-streptomycin. The cells were inoculated in a 37° C./5% CO2 incubator until the logarithmic growth phase and collected for grafting.
The mice used in this study were NOD-Scid mice (purchased from Shanghai Lingchang Biotechnology Co., Ltd.) aged about 6 weeks and bred in specific pathogen-free conditions in 12/12-hour light/dark cycles. The health status of the animals was monitored daily.
Each mouse was inoculated subcutaneously with 1×10^7 Ramos cells. When the tumor grew to 80-100 mm^3, the mice were divided into groups of 10 according to the tumor volume. The administration regimen is shown in Table 10, with the first dosing day designated as DO. Antibody huC1H1-V2 and IgG2 (Biointron, Cat. No. B107803) were both formulated to desired concentrations with normal saline, and anlotinib dihydrochloride was formulated at desired concentrations with distilled water. At the end of study (D14), the animals were sacrificed by CO2 anesthesia and dissected to give the tumors. The tumors were photographed.
The tumor diameters were measured twice weekly with a vernier caliper. Tumor volume (V)=½×a×b^2, wherein a and b denote length and width, respectively; T/C (%)=(T−T0)/(C−C0)×100, wherein T and C refer to the tumor volumes of the treatment group and the IgG2 control group on day 14, respectively, and TO and C0 refer to the tumor volumes of the treatment group and IgG2 control group on day 0, respectively; the tumor growth inhibition % (TGI %)=100−T/C (%). When the tumor regressed, the tumor growth inhibition % (TGI %)=100−(T−T0)/T0×100. If the tumor volume was smaller than the initial volume, i.e., T<T0 or C<C0, the outcome was defined as partial regression (PR); if the tumors completely disappeared, i.e., the outcome was defined as complete regression (CR).

Series [2] concerns the target Cynomolgus monkey CD40-his. Nature of the series: Biacore surface plasmon resonance affinity and binding kinetics. The note with it: for Kd: dissociation rate. The text has this: (§1) The affinity and binding kinetics of the anti-CD40 antibody in the present application were characterized by a Biacore T200 system (GE Healthcare, Pittsburgh, PA, USA).
(§2) Briefly, a goat anti-human IgG (GE Healthcare, Cat. No. BR100839, human antibody capture kit) was covalently linked to a CM5 chip (GE Healthcare, Cat. No. BR100530, carboxymethylated dextran-coated chip) via the primary amine group using a standard amine coupling kit supplied by Biacore (GE Healthcare, Pittsburgh, PA, USA). Unreacted portions on the biosensor surface were blocked with ethanolamine. Then, the anti-CD40 antibody of the present application and two benchmark antibodies (BM1 (dacetuzumab, Genentech Inc., also referred to CD40-BM1, prepared in-house; the heavy and light chain amino acid sequences are set forth in SEQ ID NOs: 40 and 41, respectively) and BM2 (selicrelumab, Abgenix Inc., also referred to CD40-BM2, prepared in-house; the heavy and light chain amino acid sequences are set forth in SEQ ID NOS: 42 and 43, respectively)) at a concentration of 66.67 nM were directed through the chip at a flow rate of 10 μL/min. Then, serially diluted recombinant human CD40-his (Acro biosystems, Cat. No. CD0-H5228, serially 2-fold diluted from 80 nM in HBS-EP^+ buffer (supplied by Biacore)) or cynomolgus monkey CD40-his protein (Acro biosystems, Cat. No. CD0-C52H6, serially 2-fold diluted from 80 nM in HBS-EP^+ buffer (supplied by Biacore)) was directed through the chip at a flow rate of 30 μL/min. The antigen-antibody binding kinetics was tracked for 2 min and the dissociation kinetics was tracked for 10 min. The association and dissociation curves were fitted to a 1:1 Langmuir binding model using BIAcore evaluation software. KD, Ka, and Kd values were determined.
For orientation: In SPR one partner is held on a chip, and binding of the other changes the refractive index at the surface.

For series [3], the target named is T1, Human CD40-his (Homo sapiens, UniProt P25942).
T1 construct: His; purchased Acro biosystems CD0-H5228
T1 sequence (P25942 21-277): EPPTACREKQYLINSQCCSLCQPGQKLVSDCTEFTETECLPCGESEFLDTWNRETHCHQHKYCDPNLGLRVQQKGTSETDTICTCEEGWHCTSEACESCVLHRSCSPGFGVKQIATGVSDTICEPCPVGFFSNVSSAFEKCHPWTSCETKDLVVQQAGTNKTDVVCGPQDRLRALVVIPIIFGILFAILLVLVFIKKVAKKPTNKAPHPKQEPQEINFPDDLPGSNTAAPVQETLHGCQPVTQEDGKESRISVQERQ
The description is as above. The note with it: for Kd: dissociation rate.
Excerpt: as §1, §2

The target of series [4] is T1, Human CD40-his. Nature of the series: Octet kinetics of humanized C1H1 antibodies. The series is classed as binding. The conditions noted are these: Table 3, Octet. On the procedure: After six days of culture in a shake flask, the cell supernatant containing the humanized antibodies huC1H1-V1 to huC1H1-V4 was harvested and the binding affinity of the antibodies to human CD40 was determined on an Octet system (Fortebio, Octet RED 96) according to the following procedures. Briefly, an anti-human IgG Fc capture (AHC) biosensor (from ForteBio) was pre-soaked in a 10 mM glycine solution (pH 1.5) for 3 s, and then soaked in a running buffer (PBST containing 0.5% w/v of BSA) for 3 s. The pre-soaking and soaking procedures were repeated 3 times. Then, the sensor was soaked in the cell supernatant containing the humanized anti-CD40 antibody, chimeric antibody C1H1 dissolved in HBS-EP^+ buffer at a concentration of 5 μg/mL, or the benchmark dissolved in HBS-EP^+ buffer at a concentration of 5 μg/mL for 120 s, and then soaked in the running buffer for 5 min. The new baseline was run in the running buffer for 180 s. The sensor was then soaked for 120 s in human CD40-his protein (Acro biosystems, Cat. No. CD0-H5228) 2-fold serially diluted from 40 nM in the running buffer and for 10 min in the running buffer […]. Finally, the sensor was pre-soaked in a 10 mM glycine solution (pH 1.5) for 3 s, and then soaked in the running buffer for 3 s. The pre-soaking and soaking procedures were repeated 3 times. […]
(Biolayer interferometry detects binding as a change in optical thickness at a sensor tip.)

The mark [5] stands for this setting: Table 5, Biacore, purified antibodies.
Setting [6] is: Table 2, Biacore, association rate.

As to `COc1cc2c(Oc3ccc4[nH]c(C)cc4c3F)ccnc2cc1OCC1(N)CC1` [anlotinib dihydrochloride, 1-[[[4-(4-fluoro-2-methyl-1H-indol-5-yl)oxy-6-methoxyquinolin-7-yl]oxy]methyl]cyclopropylamine, reference compound], the “Mean tumor volume (mean ± SD) D 0” value in series [1] (baseline, huC1H1-V2 0.5 mg/kg i.p. once every 2 days × 8, anlotinib dihydrochloride 1 mg/kg intragastric daily × 15) was determined as 85.3 ± 3.8 mm^3. In addition, the “Mean tumor volume (mean ± SD) D 14” value in series [1] (huC1H1-V2 0.5 mg/kg i.p. once every 2 days × 8, anlotinib dihydrochloride 1 mg/kg intragastric daily × 15) was found to be 1602.8 ± 137.1 mm^3. The “TGI D 14 (tumor growth inhibition rate)” value in series [1] (huC1H1-V2 0.5 mg/kg i.p., anlotinib dihydrochloride 1 mg/kg intragastric) is on record as 56%. Moreover, the “Tolerability (symptoms such as weight loss)” value in series [1] (huC1H1-V2 0.5 mg/kg i.p., anlotinib dihydrochloride 1 mg/kg intragastric, tumor-bearing mice) is “well tolerated”. Besides, the “T/C D 14” value in series [1] (vs IgG2 group, huC1H1-V2 0.5 mg/kg i.p., anlotinib dihydrochloride 1 mg/kg intragastric) is 44%.

For “BM2: benchmark antibody selicrelumab, Abgenix Inc., prepared in-house; heavy and light chain SEQ ID NOs: 42 and 43 [reference compound]”, the Kd in series [2] (Table 5, Biacore) was 0.001508 s⁻¹; in series [3] (Table 5, Biacore), 0.001616 s⁻¹; in series [4] (dissociation rate) it was 0.000979 s⁻¹. Moreover, the Ka turned out to be 173000 M⁻¹ s⁻¹ in series [2] (setting [5]); 206000 M⁻¹ s⁻¹ in series [3] (setting [5]); 874000 M⁻¹ s⁻¹ in series [4] (humanized antibodies in cell supernatant, chimeric and benchmark 5 μg/mL).

Consider “BM1: benchmark antibody dacetuzumab, Genentech Inc., prepared in-house; heavy and light chain SEQ ID NOs: 40 and 41 [reference compound]”, for which the Ka in series [2] (setting [6]) came out at 623000 M⁻¹ s⁻¹; in series [2] (setting [5]) it was 764000 M⁻¹ s⁻¹; in series [3] (setting [6]), 739000 M⁻¹ s⁻¹; in series [3] (setting [5]) it was 803000 M⁻¹ s⁻¹. The Kd amounted to 0.006164 s⁻¹ in series [2] (Table 2, Biacore); 0.007397 s⁻¹ in series [2] (Table 5, Biacore); 0.006556 s⁻¹ in series [3] (Table 2, Biacore); 0.007562 s⁻¹ in series [3] (Table 5, Biacore).
